From patent publication US20170239283A1, “USE OF STING AGONISTS TO TREAT VIRALLY-INDUCED AND PRE-MALIGNANT GROWTHS” (Providence Health & Services - Oregon, priority 2016, published 2017)

Experiments:
papilloma [1] = assay: CD3+ T cell infiltration and histology of treated papilloma; format: in vivo, mice; conditions: for infiltrating CD3+ T cells in papilloma: 24 hours after injection of 25 μg
Description: FIGS. 4A-C are a series of digital images showing infiltration of T cells following treatment with STING ligand. […] Sections were stained for CD3 and DAPI nuclear counterstain. […] Both papilloma sites were harvested 24 hours later and stained for CD3 and DAPI nuclear counterstain on the i) treated and ii) untreated opposite side papilloma.
To investigate the effect of treatment on T cell infiltration, which we and others have shown play a role in clearance of advanced cancers following administration of STING ligands (Baird et al., Cancer Res. 76:50-61, 2016; Corrales et al., Cell Rep. 11:1018-1030, 2015), papilloma were stained for infiltrating CD3^+ T cells.

cervical dysplasia = conditions: added to excisional therapies, randomized clinical trials; cited from earlier work
[2] = tested on: Murine bone marrow-derived macrophages; assay: M1/M2 differentiation of macrophages, Western blotting for iNOS and arginase I; format: cell-based; conditions: 24 hours treatment, then IFNγ (20 ng/ml) or IL-4 (20 ng/ml)
Description: FIG. 5 is a digital image of a Western blot for iNOS, Arginase I, and GAPDH in murine bone marrow-derived macrophages treated with compounds targeting TLR4 (LPS), STING (CDA), NOD2 (PGNECndss), TLR7 (Imiquimod), TLR9 (class A CpG), or RIGI (ppp5′dsRNA), then treated with IFNγ (20 ng/ml) or IL-4 (20 ng/ml).
Murine bone marrow-derived macrophages were treated for 24 hours with a range of immunological adjuvants targeting STING (CDA), NOD2 (PGNECndss), TLR7 (imiquimod), TLR9 (class A CpG), or RIGI (ppp5′dsRNA), then treated with IFNγ (20ng/ml) or IL-4 (20ng/ml) to direct M1 or M2 differentiation, respectively. Ligation of TLR4 (LPS) was a positive control. M1 differentiation was distinguished by expression of iNOS, and M2 differentiation by expression of arginase I as measured by Western blotting.

papilloma [3] = format: in vivo, mice; conditions: for papilloma size: larger 3-15 mm papilloma, 25 μg injected on d0, d1, d7 and d8
Text: Pdx-Cre^+/− (Stock190 014647, Jackson Laboratories, Bar Harbor, Me.), Kras^(G12D)+/− (Stock#008179, Jackson Laboratories), and Trp53^(R172H)+/− (Stock#01XM2, NCI Fredrick Mouse Repository) mice were crossed to generate Pdx-Cre^+/− Kras ^(G12D)+/− Trp53^(R172H)+/− that generate pancreatic tumors (Hingorani et al., Cancer Cell 7:469-483, 2005). At variable penetrance, mice develop papilloma of the face and anogenital region (Hingorani et al., Cancer Cell 7:469-483, 2005; Gades et al., Comp. Med. 58:271-275, 2008). Mice bearing papilloma with no evidence of pancreatic tumors and less than 90 days of age were accrued to this study. Masses were treated by injection of 25 μg of c-di-CDG (Invivogen, San Diego, Calif., Catalog No. tlrl-naldg), Imiquimod (Invivogen) or PBS vehicle.
STING ligands were administered into the papilloma by direct injection with a total dose of 25 μg administered in a 25 μl injection volume. In the control case, 25 μg of Imiquimod was administered using the same technique. For larger papillomas, the injection was split between different sites within the same growth. The total dose to the growth remained 25 μg in each case. The animals were retreated on day 7 with a second cycle of injections.
Rapid alterations in small papilloma to resemble normal skin were observed within 18 hours of treatment (FIGS. 2A and B). In pilot studies, mice bearing papilloma were randomly assigned to treatment with the STING ligand c-di-GMP (CDG) or PBS vehicle control. In an example of a mouse with two small papilloma on the face, one was treated by direct injection of CDG, and the other given vehicle control (FIG. 2A, left). The CDG-injected papilloma rapidly reverted to normal skin within 18 hours (FIG. 2A, right). […] Injection of STING ligand into histologically normal skin at distant sites or in normal mice had no observable effect (not shown).
In addition, very large papilloma was treated with two cycles of treatment separated by 1 week, resulting in dramatic tumor regression (FIG. 3A). […] We tested treatment of larger, 3-15 mm papilloma with STING ligands. […] Therefore, we developed a treatment course consisting of injections on d0 and d1, and again on d7 and d8 as the papilloma decreased in size (FIG. 3B). Mice were randomized to receive CDG, to conventional treatment with the TLR7 ligand imiquimod, or PBS vehicle.

Molecule | infiltrating CD3+ T cells in papilloma (papilloma [1]) | rate of recurrence of cervical dysplasia (cervical dysplasia) | M1 (iNOS) / M2 (arginase I) differentiation of macrophages [2] | papilloma size (papilloma [3]) | further results
CC(C)Cn1cnc2c(N)nc3ccccc3c21 [imiquimod] | Few to no T cells were detected | neither approach impacts the rate of recurrence | can drive macrophages into either M1 or M2 differentiation | did not significantly affect the size of the papilloma | –
Nc1ncnc2c1ncn2[C@@H]1O[C@@H]2COP(=O)(O)O[C@H]3[C@@H](O)[C@H](n4cnc5c(N)ncnc54)O[C@@H]3COP(=O)(O)O[C@H]2[C@H]1O [CDA, cyclic diadenylate monophosphate] | – | – | prevented M2 differentiation by IL-4 without driving M1 differentiation | – | –
interferon alpha | – | neither approach impacts the rate of recurrence | – | – | –
Nc1nc2c(ncn2[C@@H]2O[C@@H]3COP(=O)(O)O[C@H]4[C@@H](O)[C@H](n5cnc6c(=O)[nH]c(N)nc65)O[C@@H]4COP(=O)(O)O[C@H]3[C@H]2O)c(=O)[nH]1 [CDG, cyclic diguanylate monophosphate] | CD3^+ T cells were found associated with the normalized skin epithelium | – | – | significantly decreased papilloma size | T cells in normalized skin (papilloma [1]; 14 days following treatment): enriched in the normalized skin; T cell infiltration in treated versus untreated papilloma of the same mouse (papilloma [1]; mice with more than one papilloma, one treated, 24 hours): T cell infiltration and control only in the treated papilloma; toxicity (papilloma [3]; 25 μg direct injection): non-toxic at these doses; effect of a single injection on larger papilloma (papilloma [3]; 3-15 mm papilloma, single injection): rapid loss of papilloma around the injection site, but these did not fully regress; appearance of injection site (papilloma [3]; 18 hours after injection into small papilloma): slight reddening; complete regression of papilloma (papilloma [3]; larger papilloma, injections on d0, d1, d7 and d8): complete regression of some papilloma; time for injected small papilloma to revert to normal skin (papilloma [3]; mouse with two small papilloma on the face, direct injection of 25 μg): ≤ 18 h; regression of experimental papilloma (papilloma [3]; small papilloma, direct injection of 25 μg): rapid, site-specific regression of experimental papilloma
